Results from PMC12441834, “Highly Potent and Subtype-Selective Sperm-Specific Potassium Channel SLO3 Inhibitors Display High Tissue Exposure in the Murine Female Reproductive Tract” (ACS Pharmacology & Translational Science, 2025).
Read-outs that look alike come from different tables or passages of the source.

Assays:
[1] = In vivo IV pharmacokinetics, rat cassette; details: Sprague-Dawley, plasma, 0.2 mg/kg, male SD rats, 0.2 mpk IV; for Vd: read-out: Vss; for clearance: read-out: rat in vivo CLp
Description: In-life phase–Compounds were formulated in 12% ethanol, 48% PEG400, and 40% DMSO (v/v/v) at a concentration of 1 mg/mL and administered as a single 0.2 mg/kg IV dose (1 mL/kg) to male, Sprague–Dawley rats (n = 1; 342 g body weight) via injection into a surgically implanted jugular vein catheter. Blood samples were collected serially from a surgically implanted carotid artery catheter in each animal over multiple postadministration time points (0.033, 0.117, 0.25, 0.5, 1, 2, 4, 7, and 24 h) into chilled, K2EDTA anticoagulant-fortified tubes and immediately placed on wet ice. The blood samples were then centrifuged (1700 rcf, 5 min, 4 °C) in order to obtain plasma samples, which were stored at −80 °C until analysis by LC-MS/MS. VU6032735 was also dosed IV in C57Bl6 mice at 5 mg/kg IV to determine mouse PK. Formulation and experimental design were identical to those used for rats except that whole blood was used for analysis.
Plasma samples from the in-life phase of the study were thawed at ambient temperature (benchtop), and then, aliquots (20 μL per sample) were transferred to a 96-shallow-well (V-bottom) plate. Matrix-matched quality control (QC) samples and a standard curve of the compound (1 mg/mL DMSO stock solution) were prepared in blank rat plasma (K2EDTA-treated) via serial dilution and transferred (20 μL each) to the plate along with multiple blank plasma and tissue homogenate samples. Acetonitrile (120 μL) containing IS (10 nM carbamazepine) was added to each well of the plate to precipitate the protein. The plate was then centrifuged (4000 rcf, 5 min, ambient temperature), and the resulting supernatants (60 μL each) were transferred to a new 96-shallow-well (V-bottom) plate containing an equal volume (60 μL per well) of water (Milli-Q purified). The plate was then sealed for LC-MS/MS analysis.
Samples were analyzed via electrospray ionization (ESI) LC-MS/MS on an AB Sciex 4500 (Foster City, CA) triple-quadrupole instrument that was coupled with an Agilent 1290 Infinity Binary Pump and multisampler (Santa Clara, CA) and concentrations (ng/mL or ng/g) were determined using a matrix-matched 10-point standard curve and then converted to nM concentrations. Quantitation of compounds was performed via AB Sciex Multiquant software using the raw analyte:IS peak area ratios. The typical detection range was 0.5 ng/mL to ≥5000 ng/mL utilizing a quadratic equation regression with 1/x² weighting. Correction for dilution of all tissue samples was performed postquantitation. The corrections for dilution in the extraction buffer employed correction factors specific to each tissue weight.

[2] = Intrinsic clearance in liver microsomes; type: in vitro ADME, human; details: for Human CLhep, % Hepatic blood flow: human liver microsomes; for CLhep predicted at 1 μM: human, liver microsomes, pH 7.4, human liver microsomes, read-out: Human CLhep (in vitro hepatic clearance from microsomal CLint)
Description: (§1) The in vitro intrinsic clearance (CLint) was investigated in commercially obtained hepatic microsomes from mouse, rat, and human donors using the substrate depletion (i.e., loss-of-parent vs time, or half-life (t 1/2) method) approach with analyte detection via liquid chromatography–tandem mass spectrometry (LC-MS/MS). For each species, mean %parent remaining values at each time point were calculated from replicate raw data (analyte:IS peak area ratios) and used to determine in vitro t 1/2 and CLint.
(§2) Experiments were carried out by using a robot-assisted liquid handler (Bravo with BenchCell, Agilent). The compound was incubated (1 μM final concentration) in buffer (100 mM potassium phosphate pH 7.4 with 3 mM MgCl2) containing hepatic microsomes (0.5 mg/mL final concentration) from each species, discretely, at 37 °C under constant orbital shaking. After 5 min (preincubation), reactions were initiated by the addition of nicotinamide adenine dinucleotide phosphate (NADPH, 1 mM final concentration). At selected time intervals (0, 3, 7, 15, 25, and 45 min) postaddition of NADPH, aliquots (50 μL) were taken and placed into a 96-shallow-well plate containing ice-cold acetonitrile (150 μL) with carbamazepine (IS, 50 nM). The plates were then centrifuged (3000 rcf at 4 °C) for 10 min. The supernatants were transferred to a new 96-shallow-well daughter plate and diluted (1:1 v/v) with water (Milli-Q filtered). The plates were then sealed for preparation for LC-MS/MS analysis (see below).
(§3) Analyte:IS peak area ratios generated by LC-MS/MS were used to construct natural log-transformed %parent remaining vs time plots (using t = 0 min post-NADPH addition sample data as the starting point set to 100%). In vitro compound t 1/2 values were calculated by using the following equation: t1/2=ln(2)/k where k is the slope from the linear regression analysis of the natural log-transformed data (using means from all replicates at each time point). Resulting t 1/2 values were then used to calculate hepatic CLint values according to the following equation and with the use of species-specific scale-up factors for liver weight (grams) per total body weight (kg): CLint=0.693/invitrot1/2×1mLincubation/0.5mgmicrosomes×45mgmicrosomes/1gramliver×garamliver/kgbodywt
(§4) ^aScale-up factors used are 45 (rat) and 20 (human).
(§5) Predicted hepatic clearance (CLhep) was calculated by using the following equation: CLhep=Qh×CLint/Qh+CLint
(§6) Q h represents hepatic blood flow (mL/min/kg): 21 for humans, 70 for rats, and 90 for mouse.

[3] = Intrinsic clearance in liver microsomes; type: in vitro ADME, mouse; details: for Mouse CLhep, % Hepatic blood flow: mouse liver microsomes; for CLhep predicted at 1 μM: mouse, liver microsomes, pH 7.4, mouse liver microsomes, read-out: Mouse CLhep (in vitro hepatic clearance from microsomal CLint)
Description: as §1, §2, §3, §4, §5, §6

| Compound | AUC [1] | MRT [1] | half-life [1] | Vd [1] | clearance [1] | Human CLhep, % Hepatic blood flow [2] | CLhep predicted at 1 μM [2] | Mouse CLhep, % Hepatic blood flow [3] | CLhep predicted at 1 μM [3] |
| --- | --- | --- | --- | --- | --- | --- | --- | --- | --- |
| O=C(c1ccc(OCc2ccc(OC(F)(F)F)cc2)cc1)N1CCN(c2ccc(C(F)(F)F)cn2)CC1 [VU6032735] | 114 ng·h/mL | 2.66 h | 2.19 h | 4.69 L/kg | 29.3 mL/min/kg | 23% | 4.8 mL/min/kg | 56% | 50.1 mL/min/kg |
| Cc1cc(Cl)cc2sc(O[C@H]3CCN(C(=O)CCCS(=O)(=O)c4cccc(Br)c4)C[C@H]3F)nc12 [VU6047606] | 83.1 ng·h/mL | 2.09 h | 1.96 h | 5.03 L/kg | 40.1 mL/min/kg | 74% | > 15 mL/min/kg | 93% | > 60 mL/min/kg |
| Cc1cc(Cl)cc2sc(O[C@@H]3CCN(C(=O)CCCS(=O)(=O)c4cccc(Br)c4)C[C@H]3F)nc12 [VU6047607] | 47 ng·h/mL | 1.58 h | 1.8 h | 6.75 L/kg | 71 mL/min/kg | 82% | 17.2 mL/min/kg | 98% | 88.1 mL/min/kg |
| Cc1cc(Cl)cc2sc(O[C@@H]3CCN(C(=O)CCCS(=O)(=O)c4cccc(Br)c4)C[C@@H]3F)nc12 [VU6047608] | 58.8 ng·h/mL | 1.7 h | 1.65 h | 5.77 L/kg | 56.7 mL/min/kg | 82% | 17.1 mL/min/kg | 95% | 85.9 mL/min/kg |
| Cc1cc(Cl)cc2sc(O[C@H]3CCN(C(=O)CCCS(=O)(=O)c4cccc(Br)c4)C[C@@H]3F)nc12 [VU6047609] | 45.2 ng·h/mL | 2.36 h | 2.91 h | 10.5 L/kg | 73.8 mL/min/kg | 75% | 15.8 mL/min/kg | 97% | 87.6 mL/min/kg |
